Data taken from US20240226130A1, “4'-THIONUCLEOSIDE ANALOGUES AND THEIR PHARMACEUTICAL USE” (Gilead Sciences, Inc., priority 2022, published 2024).

Experiments:
DNA polymerase γ = DNA polymerase γ (Homo sapiens (Human), UniProt P54098); test: DNA polymerase γ single nucleotide incorporation (SNI) rate assay; assay type: biochemical; conditions: incorporation rate as a percentage relative to the corresponding natural dNTP; 50 μM analog
Protocol: Example 12: DNA Polymerase γ Single Nucleotide Incorporation (SNI) Rate Assay
The DNA polymerase (pol) γ SNI assay utilized an annealed ^32P labeled primer-template complex of D19 [5′-G TCC CTG TTC GGG CGC CAC-3′] and D36 A/G/T/C [3′-CGACCGTCCAGGGACAAGCCCGCG (TGT/CGT/ACG/GCG) ATC TCT-5′] where the templating base was chosen to base pair to the natural dNTP and analogs assayed. 20 nM DNA pol γ large subunit and 100 nM pol γ accessory subunit were preincubated on ice for 5 minutes and added to reaction mix containing 50 mM Tris-Cl pH 8.0, 5 mM DTT, 0.2 mg/mL bSA, 200 nM D19/D36 mer and 10 mM MgCl2. […] The substrate and the incorporation products, D19 and D20-28, were quantified using a Typhoon Trio Imager and Image Quant TL Software. The nucleotide incorporation rate was calculated in Prism by fitting the product formation using the single exponential equation: [D20]=A*(1−e−k*t), where [D20] represents the amount (in nM) of the elongated product formed, t represents the reaction time, k represents the observed rate, and A represents the amplitude of the exponential. […]

[1] = Rhesus pharmacokinetic study, intravenous compound 7 (plasma and PBMC); conditions: for Intracellular concentration in PBMC: LOQ 2.5 μM compound 7, 0.63 μM triphosphate
Protocol: Male Indian Origin Rhesus Monkeys were used for the pharmacokinetic studies. Studies were conducted under a protocol approved by IACUC. […] The intravenous dose was administered as an approximately 30-minute infusion, and after dose administration the dose apparatus was flushed with approximately 1 mL saline before removal from the animal. Food was returned 4 hours after dosing. […] The K2EDTA tubes were kept chilled at approximately 5° C. until centrifugation (4° C., 5 minutes, 2000×g) to collect plasma. Centrifugation began within 1 hour of collection. Plasma samples were harvested, placed in micronic tubes, and maintained on dry ice prior to storage at −70° C. until analysis by LC-MS/MS. […] The sodium citrate tubes were then gently inverted 3-4 times and stored upright at ambient temperature until centrifugation to collect PBMCs. Centrifugation began as soon as possible following collection, within 6 hours after collection. The PBMCs were separated by centrifugation (30 minutes at 1500×g-1800×g, 18-20° C.), washed once with ice cold 0.9% NaCl and treated with red blood cell lysis buffer (3.5 g ammonium chloride and 0.036 g ammonium carbonate in 500 mL ultrapure water, prepared before first blood collection) for 10 minutes at ambient temperature. Subsequently the cells were washed twice with ice cold 0.9% NaCl, the cell pellet resuspended in ice cold RIPA buffer (fortified with Pierce protease ad phosphatase inhibitor tablet), snap frozen in liquid nitrogen, and maintained at −70° C. until analysis by LC-MS/MS.

DNA polymerase α = DNA polymerase α (Homo sapiens (Human), UniProt P09884); test: DNA polymerase α single nucleotide incorporation (SNI) rate assay; assay type: biochemical; conditions: incorporation rate as a percentage relative to the corresponding natural dNTP; 50 μM analog
Chain of DNA polymerase α (P09884 whole entry): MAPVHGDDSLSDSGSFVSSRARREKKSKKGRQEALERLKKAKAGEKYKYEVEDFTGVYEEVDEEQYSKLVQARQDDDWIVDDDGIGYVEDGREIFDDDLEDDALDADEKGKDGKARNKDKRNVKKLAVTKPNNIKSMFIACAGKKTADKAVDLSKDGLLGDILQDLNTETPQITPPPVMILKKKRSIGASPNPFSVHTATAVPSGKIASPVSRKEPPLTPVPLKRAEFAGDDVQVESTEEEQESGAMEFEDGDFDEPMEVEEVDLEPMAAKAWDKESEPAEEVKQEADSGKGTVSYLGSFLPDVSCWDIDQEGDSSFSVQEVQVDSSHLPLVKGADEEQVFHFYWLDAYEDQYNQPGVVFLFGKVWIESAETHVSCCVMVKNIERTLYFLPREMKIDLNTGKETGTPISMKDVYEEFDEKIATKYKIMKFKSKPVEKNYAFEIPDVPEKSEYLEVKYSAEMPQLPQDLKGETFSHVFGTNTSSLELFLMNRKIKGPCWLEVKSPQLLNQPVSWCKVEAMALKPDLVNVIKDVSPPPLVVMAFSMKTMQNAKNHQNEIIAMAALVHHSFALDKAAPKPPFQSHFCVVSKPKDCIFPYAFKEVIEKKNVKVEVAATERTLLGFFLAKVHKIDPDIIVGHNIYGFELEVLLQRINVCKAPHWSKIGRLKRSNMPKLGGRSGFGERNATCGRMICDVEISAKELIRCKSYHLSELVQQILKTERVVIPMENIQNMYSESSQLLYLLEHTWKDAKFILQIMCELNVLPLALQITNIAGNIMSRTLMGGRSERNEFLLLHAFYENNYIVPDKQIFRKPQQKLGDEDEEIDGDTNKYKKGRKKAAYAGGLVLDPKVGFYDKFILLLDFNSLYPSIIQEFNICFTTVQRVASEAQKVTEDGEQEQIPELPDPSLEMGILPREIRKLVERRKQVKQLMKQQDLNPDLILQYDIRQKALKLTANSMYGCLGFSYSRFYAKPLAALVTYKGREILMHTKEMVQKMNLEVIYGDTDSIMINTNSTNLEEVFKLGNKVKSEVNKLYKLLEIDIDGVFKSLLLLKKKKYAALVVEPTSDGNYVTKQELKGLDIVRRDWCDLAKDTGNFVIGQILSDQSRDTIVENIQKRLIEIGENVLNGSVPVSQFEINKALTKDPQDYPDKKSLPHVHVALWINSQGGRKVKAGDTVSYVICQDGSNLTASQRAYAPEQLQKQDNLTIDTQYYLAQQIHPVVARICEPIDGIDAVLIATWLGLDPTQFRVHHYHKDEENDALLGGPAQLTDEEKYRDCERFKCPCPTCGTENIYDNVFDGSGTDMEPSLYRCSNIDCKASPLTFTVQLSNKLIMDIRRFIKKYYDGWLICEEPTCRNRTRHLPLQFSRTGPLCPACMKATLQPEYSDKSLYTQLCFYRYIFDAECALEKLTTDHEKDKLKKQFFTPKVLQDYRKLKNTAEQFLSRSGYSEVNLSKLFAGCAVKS
Protocol: Example 13: DNA Polymerase a Single Nucleotide Incorporation (SNI) Rate Assay
The DNA polymerase (pol) a SNI assay utilized an annealed ^32P labeled primer-template complex of D19 [5′-G TCC CTG TTC GGG CGC CAC-3′] and D36 A/G/T/C [3′-CGACCGTCCAGGGACAAGCCCGCG (TGT/CGT/ACG/GCG) ATC TCT-5′] where the templating base was chosen to base pair to the natural dNTP and analogs assayed. Reactions containing 50 mM Tris-Cl pH 8.0, 5 mM DTT, 0.2 mg/mL bSA, 200 nM D19/D36 mer and 10 mM MgCl2 and 5 nM DNA pol a were heated to 37° C. and initiated by addition of 50 μM (final) natural dNTP or analogs. At 0, 5, 10, 20, 40, and 60 min, 10 μL of the reaction mixture was removed and quenched with 10 μL of a gel loading buffer containing 100 mM EDTA, 80% formamide and bromophenol blue, and heated at 65° C. for 5 minutes. The samples were run on a 20% polyacrylamide gel (8 M urea) and the gel was exposed to a phosphorimager screen. The substrate and the incorporation products, D19 and D20-28, were quantified using a Typhoon Trio Imager and Image Quant TL Software. The nucleotide incorporation rate was calculated in Prism by fitting the product formation using the single exponential equation: [D20]=A*(1−e−k*t), where [D20] represents the amount (in nM) of the elongated product formed, t represents the reaction time, k represents the observed rate, and A represents the amplitude of the exponential. […]

[2] = Rhesus pharmacokinetic study, oral compound 7 (plasma and PBMC); conditions: for Intracellular concentration in PBMC: LOQ 0.16 μM compound 7, 0.04 μM triphosphate
Protocol: The oral dose was administered via oral gavage, and after dose administration the dose apparatus was flushed with approximately 10 mL water before removal from the animal. Food was returned 4 hours after dosing. […] The K2EDTA tubes were kept chilled at approximately 5° C. until centrifugation (4° C., 5 minutes, 2000×g) to collect plasma. Centrifugation began within 1 hour of collection. Plasma samples were harvested, placed in micronic tubes, and maintained on dry ice prior to storage at −70° C. until analysis by LC-MS/MS. […] The sodium citrate tubes were then gently inverted 3-4 times and stored upright at ambient temperature until centrifugation to collect PBMCs. Centrifugation began as soon as possible following collection, within 6 hours after collection. The PBMCs were separated by centrifugation (30 minutes at 1500×g-1800×g, 18-20° C.), washed once with ice cold 0.9% NaCl and treated with red blood cell lysis buffer (3.5 g ammonium chloride and 0.036 g ammonium carbonate in 500 mL ultrapure water, prepared before first blood collection) for 10 minutes at ambient temperature. Subsequently, the cells were washed twice with ice cold 0.9% NaCl and the cell pellet maintained at −70° C. until analysis by LC-MS/MS.

Chain of DNA polymerase γ (P54098 whole entry, looked up): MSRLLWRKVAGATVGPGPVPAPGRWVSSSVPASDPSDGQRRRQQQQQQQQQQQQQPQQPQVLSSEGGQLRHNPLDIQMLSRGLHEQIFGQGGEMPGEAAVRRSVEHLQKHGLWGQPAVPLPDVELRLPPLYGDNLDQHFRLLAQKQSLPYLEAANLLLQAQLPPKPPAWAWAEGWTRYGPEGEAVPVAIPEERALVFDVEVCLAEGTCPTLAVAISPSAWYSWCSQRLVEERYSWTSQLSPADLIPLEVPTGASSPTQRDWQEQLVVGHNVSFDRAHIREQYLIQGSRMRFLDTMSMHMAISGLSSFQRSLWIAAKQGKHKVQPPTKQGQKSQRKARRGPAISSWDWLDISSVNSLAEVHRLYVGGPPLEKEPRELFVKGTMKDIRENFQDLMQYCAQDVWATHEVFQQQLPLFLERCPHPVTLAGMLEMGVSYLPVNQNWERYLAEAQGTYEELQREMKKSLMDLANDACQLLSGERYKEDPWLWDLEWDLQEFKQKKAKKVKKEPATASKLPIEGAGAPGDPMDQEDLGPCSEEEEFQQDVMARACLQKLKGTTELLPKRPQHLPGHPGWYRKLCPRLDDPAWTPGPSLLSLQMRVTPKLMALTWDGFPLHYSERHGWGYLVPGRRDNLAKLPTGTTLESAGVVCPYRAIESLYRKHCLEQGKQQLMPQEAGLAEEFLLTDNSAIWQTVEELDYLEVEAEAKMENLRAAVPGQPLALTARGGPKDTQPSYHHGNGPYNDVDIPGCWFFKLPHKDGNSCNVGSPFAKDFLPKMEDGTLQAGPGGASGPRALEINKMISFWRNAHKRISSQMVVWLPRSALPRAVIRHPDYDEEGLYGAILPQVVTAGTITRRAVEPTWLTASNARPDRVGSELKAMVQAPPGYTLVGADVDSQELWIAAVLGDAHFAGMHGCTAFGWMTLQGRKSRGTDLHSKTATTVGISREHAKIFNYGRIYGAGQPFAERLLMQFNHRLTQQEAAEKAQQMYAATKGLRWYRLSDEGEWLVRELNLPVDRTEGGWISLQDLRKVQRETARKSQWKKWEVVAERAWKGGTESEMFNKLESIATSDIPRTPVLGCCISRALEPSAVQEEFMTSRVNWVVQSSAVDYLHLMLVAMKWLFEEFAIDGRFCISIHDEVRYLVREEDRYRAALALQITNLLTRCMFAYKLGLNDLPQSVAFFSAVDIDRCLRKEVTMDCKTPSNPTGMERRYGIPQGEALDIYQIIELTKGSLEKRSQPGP
Chain of DNA polymerase γ (Q9UHN1 whole entry partner, looked up): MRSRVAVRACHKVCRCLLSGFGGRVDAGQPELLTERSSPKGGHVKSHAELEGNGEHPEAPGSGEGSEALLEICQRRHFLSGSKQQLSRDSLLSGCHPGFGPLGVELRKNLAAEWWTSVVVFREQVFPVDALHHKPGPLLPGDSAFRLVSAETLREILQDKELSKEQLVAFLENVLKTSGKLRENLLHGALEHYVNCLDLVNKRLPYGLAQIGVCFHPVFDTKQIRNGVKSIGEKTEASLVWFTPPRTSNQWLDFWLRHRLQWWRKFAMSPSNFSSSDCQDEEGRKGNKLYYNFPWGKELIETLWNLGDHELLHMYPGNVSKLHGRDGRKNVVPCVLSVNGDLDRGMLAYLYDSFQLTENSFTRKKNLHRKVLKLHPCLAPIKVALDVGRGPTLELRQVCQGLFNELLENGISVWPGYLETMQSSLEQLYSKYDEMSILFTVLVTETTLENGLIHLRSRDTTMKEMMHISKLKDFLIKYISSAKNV

In the case of “Hemitriethylamine ((2R,3S,5R)-5-(4-amino-5-fluoro-2-oxopyrimidin-1(2H)-yl)-2-ethynyl-3-hydroxytetrahydrothiophen-2-yl)methyl triphosphate [Compound 8]”, the “DNA Pol γ SNIR” value (DNA polymerase γ) is reported as 1.3, the “Intracellular concentration in PBMC” value ([1]; 12 hr after intravenous 1 mg/kg compound 7) is reported as 2.19 ± 0.31 µM and the “Intracellular concentration in PBMC” value ([1]; 24 hr after intravenous 1 mg/kg compound 7) is reported as 1.34 ± 0.14 µM. The “Intracellular concentration in PBMC” value ([1]; 48 hr after intravenous 1 mg/kg compound 7) was 0.42 ± 0.06 µM, the “Intracellular concentration in PBMC” value ([1]; 72 hr after intravenous 1 mg/kg compound 7) was “BLQ” and the “Intracellular concentration in PBMC” value ([1]; 144 hr after intravenous 1 mg/kg compound 7) was “BLQ”. The “Intracellular concentration in PBMC” value ([1]; 168 hr after intravenous 1 mg/kg compound 7) was “BLQ”, the “Calculated half life of triphosphate metabolite” value ([1]; in PBMC, intravenous 1 mg/kg compound 7) was “Calculated half life of triphosphate metabolite: 19.8 ± 9.3 hours” and the “DNA Pol α SNIR” value (DNA polymerase α) was 2.6. For the same substance, the “Intracellular concentration in PBMC” value ([2]; 12 hr after oral 7.5 mg/kg compound 7) was 1.43 ± 0.45 µM, the “Intracellular concentration in PBMC” value ([2]; 24 hr after oral 7.5 mg/kg compound 7) was 1.78 ± 0.57 µM and the “Intracellular concentration in PBMC” value ([2]; 48 hr after oral 7.5 mg/kg compound 7) was 1.15 ± 0.76 µM. For the same substance, the “Intracellular concentration in PBMC” value ([2]; 72 hr after oral 7.5 mg/kg compound 7) was 0.47 ± 0.22 µM, the “Intracellular concentration in PBMC” value ([2]; 120 hr after oral 7.5 mg/kg compound 7) was 0.17 ± 0.01 µM and the “Intracellular concentration in PBMC” value ([2]; 168 hr after oral 7.5 mg/kg compound 7) was 0.09 ± 0.02 µM. For the same substance, the “Calculated half-life of triphosphate metabolite” value ([2]; in PBMC, oral 7.5 mg/kg compound 7) was “Calculated half-life of triphosphate metabolite: 43.1 ± 19.3 hours”.
